pIC50, pKi: −log10 of the molar value. Calls of active or inactive are those of the source. No cut-off for these calls is given here.
Experiments:
[1] = biological target: Histamine H3 receptor (Mus musculus, UniProt P58406); experiment: Displacement of [3H]N-alpha-methylhistamine from mouse histamine H3 receptor after 30 mins by scintillation counting analysis
[2] = biological target: Histamine H3 receptor (Homo sapiens, UniProt Q9Y5N1); experiment: Displacement of [3H]N-alpha-methylhistamine from human recombinant histamine H3 receptor expressed in HEK cells after 30 mins by scintillation counting analysis; assay type: cell-based, HEK293
[3] = biological target: Cytochrome P450 2C9 (Homo sapiens, UniProt P11712); experiment: Inhibition of CYP2C9 in human liver microsomes; assay type: ADME, Microsome
[4] = biological target: hERG (KCNH2) (Homo sapiens, UniProt Q12809); experiment: Inhibition of human ERG channel at 5 ug/ml after 30 mins by rubidium efflux assay
[5] = biological target: Cytochrome P450 2D6 (Homo sapiens, UniProt P10635); experiment: Inhibition of CYP2D6 in human liver microsomes; assay type: ADME, Microsome
[6] = biological target: Cytochrome P450 3A4 (Homo sapiens, UniProt P08684); experiment: Inhibition of CYP3A4 in human liver microsomes; assay type: ADME, Microsome
[7] = test system: Mus musculus; experiment: Ex vivo displacement of [3H]N-alpha-methylhistamine from histamine H3 receptor in mouse cortex at 10 mg/kg, po after 4 hrs by topcount scintillation counting analysis; assay type: functional
[8] = test system: Mus musculus; experiment: Ex vivo displacement of [3H]N-alpha-methylhistamine from histamine H3 receptor in mouse cortex at 1 mg/kg, po after 4 hrs by topcount scintillation counting analysis; assay type: functional
[9] = test system: Mus musculus; experiment: Antiobesity activity in diet-induced obesity mouse model assessed as reduction in body weight at 10 mg/kg, po after 4 days relative to vehicle-treated control; assay type: functional; conditions: 96 h
[10] = test system: Mus musculus; experiment: Antiobesity activity in diet-induced obesity mouse model assessed as reduction in body weight at 3 mg/kg, po after 4 days relative to vehicle-treated control; assay type: functional; conditions: 96 h
[11] = test system: Mus musculus; experiment: Antiobesity activity in diet-induced obesity mouse model assessed as reduction in body weight at 1 mg/kg, po after 4 days relative to vehicle-treated control; assay type: functional; conditions: 96 h
[12] = test system: Mus musculus; experiment: Ex vivo displacement of [3H]N-alpha-methylhistamine from histamine H3 receptor in mouse cortex at 3 mg/kg, po after 4 hrs by topcount scintillation counting analysis; assay type: functional
[13] = species: Mus musculus; experiment: Ex vivo receptor occupancy of histamine H3 receptor in mouse brain after 72 hrs by time-course method; assay type: functional, organism-based
[14] = Drug uptake in rat brain at 100 mg/kg, po after 4 hrs by Irwin test; assay type: ADME, organism-based; parameters: dose 100 mg/kg, route oral; conditions: read-out: Drug uptake
[15] = Drug uptake in rat brain at 300 mg/kg, po after 4 hrs by Irwin test; assay type: ADME, organism-based; parameters: dose 300 mg/kg, route oral; conditions: read-out: Drug uptake
[16] = Plasma concentration in rat at 300 mg/kg, po after 4 hrs by Irwin test; assay type: ADME, organism-based; parameters: dose 300 mg/kg, route oral
[17] = test system: Rattus norvegicus; experiment: Toxicity in rat assessed as behavioral change at 100 to 300 mg/kg, po by Irwin test; assay type: organism-based; parameters: dose 100-300 mg/kg, route oral; conditions: in vivo
[18] = Plasma concentration in rat at 100 mg/kg, po after 4 hrs by Irwin test; assay type: ADME, organism-based; parameters: dose 100 mg/kg, route oral

Sequence of Cytochrome P450 2D6 (P10635 whole entry): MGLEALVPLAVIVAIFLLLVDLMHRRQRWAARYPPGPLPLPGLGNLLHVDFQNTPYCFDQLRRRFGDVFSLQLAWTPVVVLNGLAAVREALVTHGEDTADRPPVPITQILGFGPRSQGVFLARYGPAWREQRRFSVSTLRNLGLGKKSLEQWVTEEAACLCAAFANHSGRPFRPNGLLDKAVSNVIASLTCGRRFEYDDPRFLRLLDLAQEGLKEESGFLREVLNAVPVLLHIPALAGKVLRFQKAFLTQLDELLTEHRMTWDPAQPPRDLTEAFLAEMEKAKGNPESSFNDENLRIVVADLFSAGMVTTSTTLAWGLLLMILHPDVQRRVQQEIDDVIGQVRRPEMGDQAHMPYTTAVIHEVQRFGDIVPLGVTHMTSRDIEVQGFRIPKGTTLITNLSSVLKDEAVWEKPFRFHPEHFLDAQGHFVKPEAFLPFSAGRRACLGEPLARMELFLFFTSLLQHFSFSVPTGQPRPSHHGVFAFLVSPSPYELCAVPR
Sequence of Cytochrome P450 2C9 (P11712 whole entry): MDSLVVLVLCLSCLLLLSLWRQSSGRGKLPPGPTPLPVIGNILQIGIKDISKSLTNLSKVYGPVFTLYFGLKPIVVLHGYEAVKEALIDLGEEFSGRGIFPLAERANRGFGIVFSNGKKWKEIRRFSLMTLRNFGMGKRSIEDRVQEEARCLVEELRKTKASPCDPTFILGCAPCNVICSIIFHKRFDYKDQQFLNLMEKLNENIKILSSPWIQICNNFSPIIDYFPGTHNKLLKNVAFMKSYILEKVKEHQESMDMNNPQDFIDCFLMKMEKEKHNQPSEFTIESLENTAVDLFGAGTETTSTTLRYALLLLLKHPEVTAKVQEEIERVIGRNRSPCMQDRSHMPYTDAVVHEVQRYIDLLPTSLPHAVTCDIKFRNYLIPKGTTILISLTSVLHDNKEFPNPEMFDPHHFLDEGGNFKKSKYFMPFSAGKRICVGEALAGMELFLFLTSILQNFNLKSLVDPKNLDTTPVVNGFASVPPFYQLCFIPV
Sequence of Histamine H3 receptor (Homo sapiens, UniProt Q9Y5N1) (Q9Y5N1 whole entry): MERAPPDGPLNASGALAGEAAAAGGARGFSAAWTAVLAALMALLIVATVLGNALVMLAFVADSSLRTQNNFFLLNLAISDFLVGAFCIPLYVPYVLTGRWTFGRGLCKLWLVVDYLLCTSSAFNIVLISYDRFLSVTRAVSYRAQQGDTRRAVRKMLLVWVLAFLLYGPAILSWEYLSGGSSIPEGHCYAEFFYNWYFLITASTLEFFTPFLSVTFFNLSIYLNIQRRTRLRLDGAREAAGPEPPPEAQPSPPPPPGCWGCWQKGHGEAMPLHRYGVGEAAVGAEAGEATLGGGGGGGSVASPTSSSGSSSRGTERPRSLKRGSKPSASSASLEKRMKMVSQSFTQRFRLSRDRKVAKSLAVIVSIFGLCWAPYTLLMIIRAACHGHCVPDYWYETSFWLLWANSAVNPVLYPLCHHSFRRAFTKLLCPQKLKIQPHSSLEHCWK
Sequence of Histamine H3 receptor (Mus musculus, UniProt P58406) (P58406 whole entry): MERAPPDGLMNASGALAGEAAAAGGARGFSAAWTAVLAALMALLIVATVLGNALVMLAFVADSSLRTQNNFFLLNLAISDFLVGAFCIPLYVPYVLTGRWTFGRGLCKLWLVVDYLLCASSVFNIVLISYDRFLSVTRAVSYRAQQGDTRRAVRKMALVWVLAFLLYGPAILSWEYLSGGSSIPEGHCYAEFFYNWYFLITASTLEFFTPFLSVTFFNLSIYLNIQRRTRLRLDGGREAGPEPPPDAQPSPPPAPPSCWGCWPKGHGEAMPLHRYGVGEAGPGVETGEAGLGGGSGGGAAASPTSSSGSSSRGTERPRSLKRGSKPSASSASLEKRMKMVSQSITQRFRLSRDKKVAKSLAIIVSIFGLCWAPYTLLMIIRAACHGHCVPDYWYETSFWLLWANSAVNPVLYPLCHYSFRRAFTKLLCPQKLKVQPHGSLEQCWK
Sequence of Cytochrome P450 3A4 (P08684 whole entry): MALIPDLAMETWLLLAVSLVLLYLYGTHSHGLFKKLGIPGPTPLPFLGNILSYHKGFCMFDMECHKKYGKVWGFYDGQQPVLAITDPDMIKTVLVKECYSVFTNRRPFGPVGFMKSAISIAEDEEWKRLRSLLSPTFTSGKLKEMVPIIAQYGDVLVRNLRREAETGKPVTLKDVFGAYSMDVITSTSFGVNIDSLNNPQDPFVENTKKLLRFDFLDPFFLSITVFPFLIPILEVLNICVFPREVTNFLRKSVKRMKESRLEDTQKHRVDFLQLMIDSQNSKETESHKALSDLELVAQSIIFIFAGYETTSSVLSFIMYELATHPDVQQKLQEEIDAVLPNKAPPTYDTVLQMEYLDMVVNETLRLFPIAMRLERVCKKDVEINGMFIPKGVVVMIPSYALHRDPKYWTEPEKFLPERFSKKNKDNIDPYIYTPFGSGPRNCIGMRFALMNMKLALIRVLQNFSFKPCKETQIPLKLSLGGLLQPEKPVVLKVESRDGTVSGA
Sequence of hERG (KCNH2) (Q12809 whole entry): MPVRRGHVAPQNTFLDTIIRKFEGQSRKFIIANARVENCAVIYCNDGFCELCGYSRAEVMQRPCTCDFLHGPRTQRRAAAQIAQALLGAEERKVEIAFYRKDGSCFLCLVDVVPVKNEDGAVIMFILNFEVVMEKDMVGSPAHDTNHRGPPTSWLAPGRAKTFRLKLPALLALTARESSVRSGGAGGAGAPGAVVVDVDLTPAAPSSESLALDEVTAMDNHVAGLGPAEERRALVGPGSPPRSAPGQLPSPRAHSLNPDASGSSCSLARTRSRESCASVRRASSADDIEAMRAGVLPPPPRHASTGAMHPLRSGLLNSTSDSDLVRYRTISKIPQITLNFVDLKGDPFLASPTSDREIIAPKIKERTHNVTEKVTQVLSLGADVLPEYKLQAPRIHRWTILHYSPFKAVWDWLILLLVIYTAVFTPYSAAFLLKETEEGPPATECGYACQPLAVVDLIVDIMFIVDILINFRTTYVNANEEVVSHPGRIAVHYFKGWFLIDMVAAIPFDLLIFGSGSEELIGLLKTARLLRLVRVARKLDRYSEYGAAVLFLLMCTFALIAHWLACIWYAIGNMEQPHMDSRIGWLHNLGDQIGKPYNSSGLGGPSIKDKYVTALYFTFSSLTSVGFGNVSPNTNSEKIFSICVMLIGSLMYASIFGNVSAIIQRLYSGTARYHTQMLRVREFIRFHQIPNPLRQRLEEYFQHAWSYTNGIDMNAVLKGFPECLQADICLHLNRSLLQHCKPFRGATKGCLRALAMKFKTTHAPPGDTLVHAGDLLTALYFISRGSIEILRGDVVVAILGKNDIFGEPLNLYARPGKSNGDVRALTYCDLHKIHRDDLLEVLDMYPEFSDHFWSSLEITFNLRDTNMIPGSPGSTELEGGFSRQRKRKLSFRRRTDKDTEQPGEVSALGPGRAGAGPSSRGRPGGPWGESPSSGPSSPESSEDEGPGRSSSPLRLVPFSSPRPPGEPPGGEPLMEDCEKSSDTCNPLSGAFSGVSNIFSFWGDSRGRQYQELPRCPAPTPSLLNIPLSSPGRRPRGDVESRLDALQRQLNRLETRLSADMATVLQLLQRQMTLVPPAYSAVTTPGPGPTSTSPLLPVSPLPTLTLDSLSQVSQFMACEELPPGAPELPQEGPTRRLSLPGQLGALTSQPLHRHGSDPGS

Structure (SMILES)	pKi [1]	pKi [2]	pIC50 [3]	inhibition at 0.5 h, 5 ug/ml [4]	pIC50 [5]	pIC50 [6]	inhibition in vivo at 10 mg/kg [7]	inhibition in vivo at 1 mg/kg [8]	inhibition in vivo at 10 mg/kg [9]	inhibition in vivo at 3 mg/kg [10]	inhibition in vivo at 1 mg/kg [11]	inhibition in vivo at 3 mg/kg [12]	Activity [13]	concentration at 4 h [14]	concentration at 4 h [15]	concentration at 4 h [16]	Activity [17]	concentration at 4 h [18]
Nc1cc(CN2CCC(F)(C(=O)N3CCC(N4Cc5cccnc5C4)CC3)CC2)ccn1	7.82	8.15																
Nc1cc(CN2CCC(F)(C(=O)N3CCC(N4c5ccccc5Sc5ccccc54)CC3)CC2)ccn1	8.15	8.15	< 4.52	40%	< 4.52	< 4.52	84%											
Nc1cc(CN2CCC(F)(C(=O)N3CCC(N4Cc5ccccc5Cc5ccccc54)CC3)CC2)ccn1	7.36	8.40	5.40	50%	< 4.52	4.74												
Nc1cc(CN2CCC(F)(C(=O)N3CCC(N4CCc5ccccc5C4)CC3)CC2)ccn1	8.40	8.70	< 4.52	2%	< 4.52	< 4.52		73%										
Nc1cc(CN2CCC(F)(C(=O)N3CCC(N4Cc5ccccc5-c5ccccc5C4)CC3)CC2)ccn1	8.40	8.70	< 4.52	27%	6.52	4.74			65%	38%	28%	91%						
N#Cc1ccc2c(c1)CN(C1CCN(C(=O)C3(F)CCN(Cc4ccnc(N)c4)CC3)CC1)CC2	8.70	8.70	< 4.52	11%	< 4.52	< 4.52		52%										
Nc1cc(CN2CCC(F)(C(=O)N3CCC(N4CCCc5ccccc5C4)CC3)CC2)ccn1	6.94	7.44	< 4.52	25%	< 4.52	< 4.52	78%											
Cc1nnc2n1-c1sccc1C(=O)N(C1CCN(C(=O)C3(F)CCN(Cc4ccnc(N)c4)CC3)CC1)C2	7.15	7.57	< 4.52	6%	< 4.52	< 4.52	0%											
Nc1cc(CN2CCC(F)(C(=O)N3CCC(N4c5ccccc5Sc5cccnc54)CC3)CC2)ccn1	7.59	8.15		54%			89%											
Nc1cc(CN2CCC(F)(C(=O)N3CCC(N4CCNc5ccccc5C4)CC3)CC2)ccn1	8.52	9.00	< 4.52	12%	< 4.52	< 4.52						22%						
Nc1cc(CN2CCC(F)(C(=O)N3CCC(N4c5ccccc5Sc5ccc(C(F)(F)F)cc54)CC3)CC2)ccn1	7.29	7.96		79%			25%											
Cn1c2c(c3ccccc31)CCN(C1CCN(C(=O)C3(F)CCN(Cc4ccnc(N)c4)CC3)CC1)CC2	7.34	7.82	< 4.52	21%	< 4.52	< 4.52												
Nc1cc(CN2CCC(F)(C(=O)N3CCC(N4CCc5ccccc5CC4)CC3)CC2)ccn1	8.52	9.00	< 4.52	-2%	< 4.52	< 4.52	98%		89%	52%	38%		Active	13700 ng/g	47100 ng/g	4940 ng/mL	Non-toxic	836 ng/mL
COc1ccc2c(c1)CN(C1CCN(C(=O)C3(F)CCN(Cc4ccnc(N)c4)CC3)CC1)CCC2	8.40	8.70	< 4.52	7%	< 4.52	< 4.52	77%											
Nc1cc(CN2CCC(F)(C(=O)N3CCC(N4Cc5ccc(F)cc5C4)CC3)CC2)ccn1	8.15	8.70	< 4.52	4%	< 4.52	< 4.52						94%						
COc1ccc2c(c1)CCCN(C1CCN(C(=O)C3(F)CCN(Cc4ccnc(N)c4)CC3)CC1)C2	8.52	9.00	< 4.52	12%	< 4.52	< 4.52	74%											
Cc1nnc2n1-c1sccc1CN(C1CCN(C(=O)C3(F)CCN(Cc4ccnc(N)c4)CC3)CC1)C2	8.70	9.00	< 4.52	9%	< 4.52	< 4.52	14%											
Nc1cc(CN2CCC(F)(C(=O)N3CCC(N4Cc5ccccc5C4)CC3)CC2)ccn1	8.40	8.70	< 4.52	-2%	< 4.52	< 4.52		81%										
